Measurements from patent US7575930B2, “Method for analyzing oligosaccharides from blood plasma” (priority 2005, dated 2009).

Assays:
[1] = target: ATIII (Homo sapiens, UniProt P01008); experiment: Affinity for ATIII; format: binding
[2] = Monitoring of the plasma concentration of 3 octasaccharides in beagle dogs after subcutaneous administration (plasma filtration + anion-exchange HPLC); format: in vivo, male dogs of the beagle breed; conditions: 0.5 mg/kg each
Experimental: A plasma sample with a volume of between 100 and 1000 μl is withdrawn and, if appropriate, the internal standard is added to the latter.
After homogenization, the resulting solution is introduced into a 30 kD Ultrafree 05 ultrafiltration cartridge (Millipore) rinsed beforehand with 250 μl of water by centrifuging at 10 000 rev/min for 5 minutes. The plasma is introduced into the upper part of the cartridge once or twice, if the amounts to be filtered are greater than 500 μl.
The cartridge is centrifuged at 10 000 rev/min for between 1 and 2 hours and then the filtrate is withdrawn. If appropriate, the second part of the plasma to be filtered is introduced into the upper part of the cartridge and the latter is again centrifuged. The exact amount of plasma introduced will have been weighed. The cartridge is centrifuged until the protein residue in the upper part of the cartridge represents no more than approximately 10% of the initial part.
The filtrate is withdrawn and 210 μl of 3M KCl per ml of plasma filtered are added to the concentrate.
After homogenization, the cartridge is centrifuged at 10 000 rev/min for between 1 and 4 hours. The cartridge is centrifuged until the protein residue in the upper part of the cartridge represents no more than approximately 10% of the initial part.
The second filtrate is withdrawn and 210 μl of 3M KCl per ml of plasma filtered are added a second time to the concentrate.
The third filtrate is withdrawn and 250 μl of water per ml of plasma filtered are added.
The filtrates are combined and diluted 5 fold in water, and the whole is injected directly in anion-exchange HPLC. Immediately before injection, the pH of the injected solution is adjusted to 3 by addition of 1N HCl.
The filtered plasma is analyzed by anion-exchange HPLC.
The columns used are IonPAc As11 columns (Dionex), with a length of 25 cm and an internal diameter of 2 mm. The detector used is a UV spectrophotometer equipped with an array of diodes.
The whole of the […] is injected after adjustment of the pH to 3 by addition of N HCl. The flow rate chosen is 0.22 ml/min; the column temperature is 40° C.
Elution is carried out in gradient mode. The two solutions used are:
Solvent A: NaH2PO4 2.5 mM, brought to pH 2.9 by addition of H3PO4
Solvent B: NaClO4 1N, NaH2PO4 2.5 mM, brought to pH 3.0 by addition of H3PO4
The elution gradient is as follows:
T=0 min: % B=3; T=40 min: % B=60; T=60 min: % B=80
The evolution of a mixture of three octasaccharides in the blood of male dogs of the beagle breed is monitored. These 3 octasaccharides, symbolized ΔIIaIIsIsIs, ΔIsIIaIIsIs and ΔIIaIIsIsIs^1,6-anhydro, are the main affinity octasaccharides of the octasaccharide fractions of Lovenox®.
The mixture is administered subcutaneously to 3 male dogs of the beagle breed at a target dose with regard to each of these 3 constituents of 0.5 mg/kg. The administration solution is a 0.9% NaCl solution of the mixture of the 3 octasaccharides at the target concentration of 0.5 mg/ml. Blood samples of 5 ml are withdrawn at the times 0, 0.25 h, 0.5 h, 1 h, 2 h, 4 h, 6 h, 8 h, 24 h, 30 h and 48 h after administration. The blood samples withdrawn are collected in tubes containing 400 μl of a CTAD (citrate, theophylline, adenosine, dipyridamole) mixture. After homogenization, the solution is centrifuged at 3000 g at 15° C. for 15 min. The plasma supernatant is recovered and stored at −20° C. until use.
For the treatment of the plasma before HPLC injection, approximately 1 ml of plasma is withdrawn and weighed, to which 50 μl of a solution of the internal standard at a concentration of approximately 0.02 g/l are added.
The internal standard is chosen so that it is structurally as close as possible to the products to be analyzed. Its structure is given below.
The tetrasaccharide used makes it possible to correct the potentional influence of the variations in the extraction yield.
The plasma is treated and analyzed by HPLC.

[3] = Dog 1, 0 h after subcutaneous administration
[4] = Dog 1, 0.25 h after subcutaneous administration
[5] = Dog 1, 0.5 h after subcutaneous administration
[6] = Dog 1, 1 h after subcutaneous administration
[7] = Dog 1, 2 h after subcutaneous administration
[8] = Dog 1, 4 h after subcutaneous administration
[9] = Dog 1, 6 h after subcutaneous administration
[10] = Dog 1, 8 h after subcutaneous administration
[11] = Dog 1, 24 h after subcutaneous administration
[12] = Dog 1, 30 h after subcutaneous administration
[13] = Dog 1, 48 h after subcutaneous administration
[14] = Dog 2, 0 h after subcutaneous administration
[15] = Dog 2, 0.25 h after subcutaneous administration
[16] = Dog 2, 0.5 h after subcutaneous administration
[17] = Dog 2, 1 h after subcutaneous administration
[18] = Dog 2, 2 h after subcutaneous administration
[19] = Dog 2, 4 h after subcutaneous administration
[20] = Dog 2, 6 h after subcutaneous administration
[21] = Dog 2, 8 h after subcutaneous administration
[22] = Dog 2, 24 h after subcutaneous administration
[23] = Dog 2, 30 h after subcutaneous administration
[24] = Dog 2, 48 h after subcutaneous administration
[25] = Dog 3, 0 h after subcutaneous administration
[26] = Dog 3, 0.25 h after subcutaneous administration
[27] = Dog 3, 0.5 h after subcutaneous administration
[28] = Dog 3, 1 h after subcutaneous administration
[29] = Dog 3, 2 h after subcutaneous administration
[30] = Dog 3, 4 h after subcutaneous administration
[31] = Dog 3, 6 h after subcutaneous administration
[32] = Dog 3, 8 h after subcutaneous administration
[33] = Dog 3, 24 h after subcutaneous administration
[34] = Dog 3, 30 h after subcutaneous administration
[35] = Dog 3, 48 h after subcutaneous administration

Chain of ATIII (P01008 33-464, species assumed): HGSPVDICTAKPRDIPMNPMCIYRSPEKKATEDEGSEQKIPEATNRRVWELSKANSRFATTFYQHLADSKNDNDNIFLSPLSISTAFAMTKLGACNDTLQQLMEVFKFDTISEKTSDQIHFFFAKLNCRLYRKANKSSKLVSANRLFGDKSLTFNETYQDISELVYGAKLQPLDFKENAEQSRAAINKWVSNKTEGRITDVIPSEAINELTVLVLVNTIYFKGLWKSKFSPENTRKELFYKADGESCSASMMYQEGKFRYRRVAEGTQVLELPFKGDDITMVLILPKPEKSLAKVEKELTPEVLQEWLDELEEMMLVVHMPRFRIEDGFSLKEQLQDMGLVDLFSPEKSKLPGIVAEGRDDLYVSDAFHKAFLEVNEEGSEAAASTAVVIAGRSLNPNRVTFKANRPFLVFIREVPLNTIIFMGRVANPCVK

Row | affinity for ATIII [1] | plasma concentration [2, 3] | plasma concentration [2, 4] | plasma concentration [2, 5] | plasma concentration [2, 6] | plasma concentration [2, 7] | plasma concentration [2, 8] | plasma concentration [2, 9] | plasma concentration [2, 10] | plasma concentration [2, 11] | plasma concentration [2, 12] | plasma concentration [2, 13] | plasma concentration [2, 14] | plasma concentration [2, 15] | plasma concentration [2, 16] | plasma concentration [2, 17] | plasma concentration [2, 18] | plasma concentration [2, 19] | plasma concentration [2, 20] | plasma concentration [2, 21] | SMILES | further results
1 | high affinity for ATIII | 0 nM | 50 nM | 170 nM | 340 nM | 560 nM | 440 nM | 370 nM | 300 nM | 60 nM | 30 nM | 10 nM | 0 nM | 50 nM | 100 nM | 210 nM | 320 nM | 300 nM | 370 nM | 250 nM | CC(=O)N[C@H]1[C@@H](O[C@H]2[C@H](O)[C@@H](O)[C@H](O[C@H]3[C@H](OS(=O)(=O)O)[C@@H](NS(=O)(=O)O)[C@@H](O[C@H]4[C@H](O)[C@@H](OS(=O)(=O)O)[C@H](O[C@H]5[C@H](O)[C@@H](NS(=O)(=O)O)[C@@H](O[C@H]6[C@H](O)[C@@H](OS(=O)(=O)O)[C@H](O[C@H]7[C@H](O)C(NS(=O)(=O)O)[C@@H]8OC[C@H]7O8)O[C@H]6C(=O)O)O[C@@H]5COS(=O)(=O)O)O[C@H]4C(=O)O)O[C@@H]3COS(=O)(=O)O)O[C@@H]2C(=O)O)O[C@H](COS(=O)(=O)O)[C@@H](O[C@@H]2OC(C(=O)O)=C[C@H](O)[C@H]2O)[C@@H]1O (some centres unmarked) [ΔIIaIIsIsIs^1,6-anhydro] | plasma concentration [2, 22]: 50 nM; plasma concentration [2, 23]: 30 nM; plasma concentration [2, 24]: 10 nM; plasma concentration [2, 25]: 0 nM; plasma concentration [2, 26]: 60 nM; plasma concentration [2, 27]: 170 nM; plasma concentration [2, 28]: 240 nM; plasma concentration [2, 29]: 340 nM; plasma concentration [2, 30]: 460 nM; plasma concentration [2, 31]: 380 nM; plasma concentration [2, 32]: 300 nM; plasma concentration [2, 33]: 50 nM; plasma concentration [2, 34]: 40 nM; plasma concentration [2, 35]: 10 nM
2 | high affinity for ATIII | 0 nM | 10 nM | 70 nM | 160 nM | 330 nM | 270 nM | 220 nM | 180 nM | 40 nM | 20 nM | 0 nM | 0 nM | 30 nM | 60 nM | 110 nM | 200 nM | 180 nM | 230 nM | 150 nM | CC(=O)NC1C(OC2C(C(=O)O)OC(OC3C(COS(=O)(=O)O)OC(OC4C(C(=O)O)OC(OC5C(COS(=O)(=O)O)OC(O)C(NS(=O)(=O)O)C5O)C(OS(=O)(=O)O)C4O)C(NS(=O)(=O)O)C3OS(=O)(=O)O)C(O)C2O)OC(COS(=O)(=O)O)C(OC2OC(C(=O)O)C(OC3OC(COS(=O)(=O)O)C(OC4OC(C(=O)O)=CC(O)C4OS(=O)(=O)O)C(O)C3NS(=O)(=O)O)C(O)C2O)C1O (centres unmarked) [ΔIsIIaIIsIs] | plasma concentration [2, 22]: 30 nM; plasma concentration [2, 23]: 20 nM; plasma concentration [2, 24]: 0 nM; plasma concentration [2, 25]: 0 nM; plasma concentration [2, 26]: 20 nM; plasma concentration [2, 27]: 90 nM; plasma concentration [2, 28]: 130 nM; plasma concentration [2, 29]: 190 nM; plasma concentration [2, 30]: 280 nM; plasma concentration [2, 31]: 230 nM; plasma concentration [2, 32]: 190 nM; plasma concentration [2, 33]: 30 nM; plasma concentration [2, 34]: 20 nM; plasma concentration [2, 35]: 0 nM
